Laboratory results from the kinase profiling compilation of Christmann-Franck et al. (2016).

How the values were obtained:
Experiment in all cases: radiometric filter-binding kinase assay, Kinase HotSpot
Settings in all cases: compound 0.5 µM; ATP 10 µM
[1] = target: BRSK1 (human) (UniProt Q8TDC3)
[2] = target: CAMK2B (human) (UniProt Q13554)
[3] = target: CAMKK1 (human) (UniProt Q8N5S9)
[4] = target: CDK4 CCND3 (human) (UniProt P30281+P11802)
[5] = target: CDK9 CCNK (human) (UniProt O75909+P50750)
[6] = target: CSNK1A1 (human) (UniProt P48729)
[7] = target: EGFR (human) (UniProt P00533)
[8] = target: EPHA5 (human) (UniProt P54756)
[9] = target: FGFR1 (human) (UniProt P11362)
[10] = target: GSK3B (human) (UniProt P49841)
[11] = target: IKBKE (human) (UniProt Q14164)
[12] = target: JAK1 JH1 catalytic (human) (UniProt P23458)
[13] = target: JAK2 JH1 JH2 (human) (UniProt O60674)
[14] = target: MAP3K10 (human) (UniProt Q02779)
[15] = target: MAP3K11 (human) (UniProt Q16584)
[16] = target: MAP4K5 (human) (UniProt Q9Y4K4)
[17] = target: MAPK1 (human) (UniProt P28482)
[18] = target: MAPK11 (human) (UniProt Q15759)
[19] = target: MAPKAPK3 (human) (UniProt Q16644)
[20] = target: MERTK (human) (UniProt Q12866)
[21] = target: MLTK (human) (UniProt Q9NYL2)
[22] = target: MUSK (human) (UniProt O15146)
[23] = target: MYLK2 (human) (UniProt Q9H1R3)
[24] = target: NEK2 (human) (UniProt P51955)
[25] = target: PDGFRA (human) (UniProt P16234)
[26] = target: PKN1 (human) (UniProt Q16512)
[27] = target: PKN2 (human) (UniProt Q16513)
[28] = target: PRKCE (human) (UniProt Q02156)
[29] = target: PRKD3 (human) (UniProt O94806)
[30] = target: PTK6 (human) (UniProt Q13882)
[31] = target: ROS1 (human) (UniProt P08922)
[32] = target: RPS6KA1 KD1 KD2 (human) (UniProt Q15418)
[33] = target: RPS6KA5 KD2 (human) (UniProt O75582)
[34] = target: RPS6KA6 KD1 KD2 (human) (UniProt Q9UK32)
[35] = target: SRMS (human) (UniProt Q9H3Y6)
[36] = target: SRPK1 (human) (UniProt Q96SB4)
[37] = target: STK4 (human) (UniProt Q13043)
[38] = target: TSSK1B (human) (UniProt Q9BXA7)
[39] = target: TYRO3 (human) (UniProt Q06418)
[40] = target: WEE1 (human) (UniProt P30291)
[41] = target: WNK3 (human) (UniProt Q9BYP7)
WNK3 (human), sequence (Q9BYP7 whole entry, looked up): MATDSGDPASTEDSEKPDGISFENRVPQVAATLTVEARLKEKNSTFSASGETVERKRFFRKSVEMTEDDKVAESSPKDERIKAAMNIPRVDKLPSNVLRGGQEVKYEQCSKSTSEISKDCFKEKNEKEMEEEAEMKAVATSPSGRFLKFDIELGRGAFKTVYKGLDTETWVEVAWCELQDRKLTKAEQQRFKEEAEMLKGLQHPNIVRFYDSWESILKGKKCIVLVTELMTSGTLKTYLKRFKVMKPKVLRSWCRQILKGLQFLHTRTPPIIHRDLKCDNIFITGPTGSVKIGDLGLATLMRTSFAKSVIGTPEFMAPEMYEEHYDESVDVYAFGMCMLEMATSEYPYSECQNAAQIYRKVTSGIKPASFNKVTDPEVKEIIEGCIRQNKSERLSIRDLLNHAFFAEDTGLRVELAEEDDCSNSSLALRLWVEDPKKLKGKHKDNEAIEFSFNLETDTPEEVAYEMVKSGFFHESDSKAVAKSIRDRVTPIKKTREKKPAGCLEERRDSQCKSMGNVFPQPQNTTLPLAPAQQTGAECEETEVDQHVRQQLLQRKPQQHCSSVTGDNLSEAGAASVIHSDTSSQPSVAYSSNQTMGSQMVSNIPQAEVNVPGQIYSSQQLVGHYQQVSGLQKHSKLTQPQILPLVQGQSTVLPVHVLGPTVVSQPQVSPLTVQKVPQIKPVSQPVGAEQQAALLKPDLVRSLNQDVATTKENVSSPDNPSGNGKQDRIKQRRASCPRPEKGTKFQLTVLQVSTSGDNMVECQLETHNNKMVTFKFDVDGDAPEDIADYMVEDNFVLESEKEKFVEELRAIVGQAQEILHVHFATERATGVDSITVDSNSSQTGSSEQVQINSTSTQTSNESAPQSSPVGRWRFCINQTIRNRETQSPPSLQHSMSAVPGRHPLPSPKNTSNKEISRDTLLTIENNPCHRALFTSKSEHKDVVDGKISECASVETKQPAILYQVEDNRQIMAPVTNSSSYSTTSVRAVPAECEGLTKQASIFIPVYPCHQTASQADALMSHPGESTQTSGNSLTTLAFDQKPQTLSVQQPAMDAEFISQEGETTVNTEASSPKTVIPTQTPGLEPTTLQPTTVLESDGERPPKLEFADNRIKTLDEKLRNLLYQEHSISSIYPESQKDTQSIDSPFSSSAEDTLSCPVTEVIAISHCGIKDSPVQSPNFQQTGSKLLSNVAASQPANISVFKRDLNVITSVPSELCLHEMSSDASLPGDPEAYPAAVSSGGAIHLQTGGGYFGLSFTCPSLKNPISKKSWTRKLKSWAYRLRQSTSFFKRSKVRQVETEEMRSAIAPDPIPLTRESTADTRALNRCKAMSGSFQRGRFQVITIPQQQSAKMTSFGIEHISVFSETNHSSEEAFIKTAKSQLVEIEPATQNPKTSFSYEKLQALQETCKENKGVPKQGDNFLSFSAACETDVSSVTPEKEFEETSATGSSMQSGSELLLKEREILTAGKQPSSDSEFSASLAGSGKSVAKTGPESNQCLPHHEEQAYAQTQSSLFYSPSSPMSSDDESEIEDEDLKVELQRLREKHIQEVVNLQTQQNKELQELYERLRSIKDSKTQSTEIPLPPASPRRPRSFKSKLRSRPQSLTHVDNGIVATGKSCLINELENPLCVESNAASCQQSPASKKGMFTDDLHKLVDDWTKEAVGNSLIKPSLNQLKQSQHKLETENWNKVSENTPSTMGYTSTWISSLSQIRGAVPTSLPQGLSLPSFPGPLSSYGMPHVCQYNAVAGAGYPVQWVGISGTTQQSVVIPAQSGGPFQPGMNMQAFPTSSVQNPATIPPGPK

EGFR (human), sequence (P00533 whole entry, looked up): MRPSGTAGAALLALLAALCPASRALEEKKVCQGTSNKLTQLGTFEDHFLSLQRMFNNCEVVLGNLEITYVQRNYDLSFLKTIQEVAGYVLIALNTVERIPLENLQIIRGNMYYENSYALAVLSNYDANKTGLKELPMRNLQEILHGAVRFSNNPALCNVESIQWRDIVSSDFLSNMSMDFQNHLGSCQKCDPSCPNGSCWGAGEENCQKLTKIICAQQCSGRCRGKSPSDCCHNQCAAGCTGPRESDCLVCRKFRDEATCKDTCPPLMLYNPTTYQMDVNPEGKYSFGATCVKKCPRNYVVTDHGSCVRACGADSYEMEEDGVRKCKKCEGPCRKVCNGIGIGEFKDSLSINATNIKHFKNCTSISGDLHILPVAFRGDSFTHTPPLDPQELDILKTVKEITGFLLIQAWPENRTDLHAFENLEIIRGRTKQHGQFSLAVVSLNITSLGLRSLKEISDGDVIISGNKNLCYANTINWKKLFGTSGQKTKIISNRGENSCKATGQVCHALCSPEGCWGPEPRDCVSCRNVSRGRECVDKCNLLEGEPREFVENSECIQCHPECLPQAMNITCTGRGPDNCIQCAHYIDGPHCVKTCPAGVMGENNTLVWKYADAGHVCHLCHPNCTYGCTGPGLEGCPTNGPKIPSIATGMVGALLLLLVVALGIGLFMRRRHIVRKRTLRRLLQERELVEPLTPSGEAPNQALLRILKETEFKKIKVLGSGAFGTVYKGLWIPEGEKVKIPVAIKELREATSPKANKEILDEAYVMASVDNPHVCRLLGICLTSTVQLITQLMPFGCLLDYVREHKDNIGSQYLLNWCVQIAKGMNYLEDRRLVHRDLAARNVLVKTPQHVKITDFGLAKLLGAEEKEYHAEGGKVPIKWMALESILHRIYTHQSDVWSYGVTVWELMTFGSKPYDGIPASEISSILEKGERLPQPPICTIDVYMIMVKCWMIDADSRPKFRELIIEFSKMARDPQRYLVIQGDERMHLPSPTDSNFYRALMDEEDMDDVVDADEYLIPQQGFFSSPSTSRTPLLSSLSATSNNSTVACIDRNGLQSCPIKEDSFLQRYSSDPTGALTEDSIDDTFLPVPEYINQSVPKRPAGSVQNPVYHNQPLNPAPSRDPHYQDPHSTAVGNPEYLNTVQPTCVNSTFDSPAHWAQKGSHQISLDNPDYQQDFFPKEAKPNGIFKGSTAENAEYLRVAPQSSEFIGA
JAK2 JH1 JH2 (human), sequence (O60674 whole entry, looked up): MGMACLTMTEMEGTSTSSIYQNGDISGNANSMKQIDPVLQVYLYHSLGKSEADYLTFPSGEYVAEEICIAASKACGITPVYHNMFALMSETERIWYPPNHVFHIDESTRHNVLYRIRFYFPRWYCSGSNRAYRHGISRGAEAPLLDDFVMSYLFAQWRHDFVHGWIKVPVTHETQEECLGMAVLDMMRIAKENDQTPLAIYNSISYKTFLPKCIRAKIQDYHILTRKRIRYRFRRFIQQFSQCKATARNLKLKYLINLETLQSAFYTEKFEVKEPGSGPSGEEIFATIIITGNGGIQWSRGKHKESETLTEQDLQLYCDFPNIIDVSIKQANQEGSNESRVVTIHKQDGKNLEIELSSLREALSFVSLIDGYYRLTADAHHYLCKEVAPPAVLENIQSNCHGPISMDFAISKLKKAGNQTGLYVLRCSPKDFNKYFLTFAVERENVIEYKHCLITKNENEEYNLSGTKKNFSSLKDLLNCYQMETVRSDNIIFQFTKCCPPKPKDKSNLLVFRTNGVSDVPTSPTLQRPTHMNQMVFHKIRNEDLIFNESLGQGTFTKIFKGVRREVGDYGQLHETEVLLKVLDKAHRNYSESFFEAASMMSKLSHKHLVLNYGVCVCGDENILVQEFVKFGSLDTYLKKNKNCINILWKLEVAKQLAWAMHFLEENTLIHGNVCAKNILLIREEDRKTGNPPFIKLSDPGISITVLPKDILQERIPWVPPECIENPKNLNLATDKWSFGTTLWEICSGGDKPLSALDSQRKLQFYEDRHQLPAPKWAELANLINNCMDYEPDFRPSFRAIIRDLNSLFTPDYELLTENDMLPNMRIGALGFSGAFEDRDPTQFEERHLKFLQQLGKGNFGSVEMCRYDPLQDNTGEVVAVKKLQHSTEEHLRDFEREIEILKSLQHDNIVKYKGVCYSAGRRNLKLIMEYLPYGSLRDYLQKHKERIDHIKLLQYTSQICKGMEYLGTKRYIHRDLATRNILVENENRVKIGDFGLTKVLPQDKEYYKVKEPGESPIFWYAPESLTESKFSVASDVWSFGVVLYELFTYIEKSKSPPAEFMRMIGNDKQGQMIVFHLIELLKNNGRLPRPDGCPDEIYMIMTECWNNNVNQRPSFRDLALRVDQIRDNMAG
RPS6KA1 KD1 KD2 (human), sequence (Q15418 whole entry, looked up): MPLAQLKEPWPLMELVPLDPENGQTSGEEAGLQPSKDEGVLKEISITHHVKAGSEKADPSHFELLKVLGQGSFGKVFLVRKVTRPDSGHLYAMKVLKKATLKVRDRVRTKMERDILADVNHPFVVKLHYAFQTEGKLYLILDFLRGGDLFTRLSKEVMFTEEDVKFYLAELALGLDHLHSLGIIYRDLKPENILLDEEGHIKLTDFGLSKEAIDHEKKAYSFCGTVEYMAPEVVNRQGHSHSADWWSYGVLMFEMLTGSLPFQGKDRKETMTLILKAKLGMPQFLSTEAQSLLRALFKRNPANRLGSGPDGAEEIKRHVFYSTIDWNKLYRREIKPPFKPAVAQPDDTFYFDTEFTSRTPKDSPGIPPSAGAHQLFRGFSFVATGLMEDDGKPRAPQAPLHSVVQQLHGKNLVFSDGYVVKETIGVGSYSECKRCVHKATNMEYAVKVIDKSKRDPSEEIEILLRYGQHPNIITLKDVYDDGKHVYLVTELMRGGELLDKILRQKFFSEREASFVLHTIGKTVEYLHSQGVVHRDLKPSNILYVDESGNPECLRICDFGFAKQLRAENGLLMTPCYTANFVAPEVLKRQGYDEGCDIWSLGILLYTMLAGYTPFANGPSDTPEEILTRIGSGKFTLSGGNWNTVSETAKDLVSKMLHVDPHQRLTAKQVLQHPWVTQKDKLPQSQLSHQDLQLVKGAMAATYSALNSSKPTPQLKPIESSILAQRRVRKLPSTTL

SMILES: O=C(Nc1cccc(Nc2cc(Nc3cccc(C(F)(F)F)c3)ncn2)c1)C1CC1
- residual activity [1]: 101%
- residual activity [2]: 105%
- residual activity [3]: 116%
- residual activity [4]: 105%
- residual activity [5]: 102%
- residual activity [6]: 102%
- residual activity [7]: 5.82%
- residual activity [8]: 106%
- residual activity [9]: 103%
- residual activity [10]: 114%
- residual activity [11]: 97.7%
- residual activity [12]: 103%
- residual activity [13]: 99.5%
- residual activity [14]: 101%
- residual activity [15]: 97.7%
- residual activity [16]: 96.1%
- residual activity [17]: 101%
- residual activity [18]: 97.2%
- residual activity [19]: 104%
- residual activity [20]: 97.3%
- residual activity [21]: 97.1%
- residual activity [22]: 113%
- residual activity [23]: 98.9%
- residual activity [24]: 99.5%
- residual activity [25]: 86.4%
- residual activity [26]: 98.9%
- residual activity [27]: 95.9%
- residual activity [28]: 89.2%
- residual activity [29]: 96.9%
- residual activity [30]: 98.4%
- residual activity [31]: 93.5%
- residual activity [32]: 95.1%
- residual activity [33]: 103%
- residual activity [34]: 96.6%
- residual activity [35]: 95.2%
- residual activity [36]: 86.4%
- residual activity [37]: 99%
- residual activity [38]: 104%
- residual activity [39]: 85.4%
- residual activity [40]: 94%
- residual activity [41]: 100%

SMILES: CC(=O)O/N=C1\C(=C2\C(=O)Nc3cc(Br)ccc32)Nc2ccccc21
- residual activity [1]: 43.5%
- residual activity [2]: 91.5%
- residual activity [3]: 72.7%
- residual activity [4]: 86.2%
- residual activity [5]: 64.3%
- residual activity [6]: 68.5%
- residual activity [7]: 91.1%
- residual activity [8]: 102%
- residual activity [9]: 68.8%
- residual activity [10]: 14.3%
- residual activity [11]: 81.4%
- residual activity [12]: 104%
- residual activity [13]: 105%
- residual activity [14]: 92.3%
- residual activity [15]: 42.5%
- residual activity [16]: 24.1%
- residual activity [17]: 87.9%
- residual activity [18]: 83.4%
- residual activity [19]: 105%
- residual activity [20]: 77%
- residual activity [21]: 77%
- residual activity [22]: 68.5%
- residual activity [23]: 55%
- residual activity [24]: 73.9%
- residual activity [25]: 82.9%
- residual activity [26]: 96.1%
- residual activity [27]: 85.4%
- residual activity [28]: 86.2%
- residual activity [29]: 84.9%
- residual activity [30]: 91.2%
- residual activity [31]: 105%
- residual activity [32]: 69%
- residual activity [33]: 83.9%
- residual activity [34]: 70%
- residual activity [35]: 98%
- residual activity [36]: 96.7%
- residual activity [37]: 54.2%
- residual activity [38]: 92.4%
- residual activity [39]: 69.8%
- residual activity [40]: 93.7%
- residual activity [41]: 93%

SMILES: COc1cc2ncnc(N3CCN(C(=O)Nc4ccc(Oc5ccccc5)cc4)CC3)c2cc1OC
- residual activity [1]: 86.4%
- residual activity [2]: 96.3%
- residual activity [3]: 92.9%
- residual activity [4]: 90.3%
- residual activity [5]: 83.6%
- residual activity [6]: 108%
- residual activity [7]: 79.1%
- residual activity [8]: 98.3%
- residual activity [9]: 89.6%
- residual activity [10]: 99%
- residual activity [11]: 98.9%
- residual activity [12]: 96.5%
- residual activity [13]: 99.3%
- residual activity [14]: 92%
- residual activity [15]: 97%
- residual activity [16]: 81.6%
- residual activity [17]: 83.9%
- residual activity [18]: 99.6%
- residual activity [19]: 94.6%
- residual activity [20]: 60%
- residual activity [21]: 96.2%
- residual activity [22]: 87.4%
- residual activity [23]: 94.6%
- residual activity [24]: 81.3%
- residual activity [25]: 16.4%
- residual activity [26]: 103%
- residual activity [27]: 99.1%
- residual activity [28]: 106%
- residual activity [29]: 97.5%
- residual activity [30]: 95.2%
- residual activity [31]: 89.7%
- residual activity [32]: 82%
- residual activity [33]: 96.4%
- residual activity [34]: 92%
- residual activity [35]: 93.6%
- residual activity [36]: 97.5%
- residual activity [37]: 97.1%
- residual activity [38]: 65.2%
- residual activity [39]: 99.6%
- residual activity [40]: 97.5%
- residual activity [41]: 101%
